Assay results taken from patent publication US20170251707A1, “PROCESS FOR THE PRODUCTION OF LOW COLORIE SWEETENER COMPOSITIONS AND USES THEREOF” (priority 2016, published 2017).
Like-named read-outs stand apart in the source and are kept apart here.

Tests used:
[1] = healthy and type 2 diabetic subjects, sucrose with 4% added L-Arabinose; cited from earlier work
intestinal sucrase = settings: porcine intestinal mucosa, in vitro; cited from earlier work
[2] = cited from earlier work
[3] = humans, after six months; cited from earlier work
[4] = rats, HCHF diet; cited from earlier work
[5] = acute (test meal) and sub chronic (twice a day for 9 week), after sucrose feeding; cited from earlier work
[6] = cited from earlier work; remark: listed apart in the source
[7] = continuous intravenous, 1 g/kg body weight, human subjects; cited from earlier work
[8] = cited from earlier work; remark: listed apart in the source
[9] = cited from earlier work; remark: listed apart in the source
[10] = pre-exercise ingestion; cited from earlier work
[11] = HFD-fed mice; cited from earlier work
[12] = alone or in combination with fructose, compared with glucose alone; cited from earlier work
[13] = blood plasma testing; cited from earlier work
[14] = In vivo study: test beverage, postprandial glucose and insulin responses; set-up: species or system people; settings: versus 25 g sucrose control, p=0.0001
Experimental: FIGS. 3 and 4 represent the outcome of an in vivo study performed using 15 previously selected people. Selected subjects arrived at the labs between 8 am and 9:45 am, and the start time for each subject was kept as similar as possible. After being weighed, 2 fasting blood samples at 5 min intervals were collected; subjects started to consume a test beverage (sweetener mixed with water) which was consumed in its entirety within 5 min. A timer was started at the first sip of the beverage, and further capillary blood samples were obtained at t=15, 30, 45, 60, 90 and 120±2 min, for the determination of glucose and insulin concentrations. Blood samples were collected into 2 separate vials: one (2-3 drops blood) for glucose analysis and the other (8-10 drops of blood) for insulin. Before and during the test, a blood glucose test record was filled out with the subject's initials, ID number, date, body weight, test meal, time of starting to eat, time it took to eat, time and composition of last meal, and any unusual activities. At the beginning and end, participants were asked to fill out a symptom questionnaire. During the 2 hours of the test, participants remain seated quietly. After the last blood sample was obtained participants were offered a snack and allowed to leave. […]

[15] = sucrose in combination with L-Arabinose versus sucrose
[16] = oral 15, 35 or 75 g in 250 ml, versus water alone

O=C[C@H](O)[C@@H](O)[C@@H](O)CO [L-Arabinose]
increases in plasma glucose [1]: reduced
increases in serum insulin [1]: reduced
effect on intestinal sucrase activity (intestinal sucrase): inhibitory effect
liver triacylglycerol concentrations ([2]; rats fed with sucrose, additional feeding of L-Arabinose): prevented this increase
blood glucose response [2, 15]: suppressed
insulin response [2, 15]: suppressed
diastolic blood pressure [3]: slightly decreased
high-density lipoprotein cholesterol [3]: slightly increased
waist circumference, total cholesterol, fasting glucose, serum uric acid, low-density lipoprotein cholesterol [3]: decreased
body weight, lee's index, visceral index [4]: lower
dyslipidemia, insulin resistance, inflammation, and viscera function [4]: improve
blood glucose [5]: suppressed

OCC(O)CO [glycerol]
insulin response [6, 16]: did not differ significantly from those after water alone
plasma glucose response [6, 16]: did not differ significantly from those after water alone
serum insulin concentration [7]: did not result in an increased

OC[C@@H](O)[C@@H](O)CO [Erythritol, (2R,3S)-butane-1,2,3,4-tetraol]
excretion ([8]; human metabolism, for the most part): excreted unchanged in the urine
absorption ([8]; human metabolism): absorbed into the bloodstream in the small intestine
increases in blood sugar levels ([8]; in vivo): does not induce increases
laxative effects ([8]; in vivo): does not normally cause laxative effects
tooth decay ([8]; in vivo): does not cause
gastric side effects ([8]; unlike other sugar alcohols): unlikely to cause

O=C[C@H](O)[C@@H](O)[C@H](O)[C@H](O)CO [D-glucose, reference compound]
incremental area under the glucose response curve (AUC) ([6]; oral 15 or 75 g in 250 ml): significant dose-dependent increase
incremental area under the insulin response curve (AUC) ([6]; oral 15 or 75 g in 250 ml): significant dose-dependent increase
reduction in blood glucose levels ([9]; after 180 minute): 20%
increment / elevation of blood glucose levels ([9]; healthy human subjects): 52%

OC[C@H]1O[C@H](O[C@H]2O[C@H](CO)[C@@H](O)[C@H](O)[C@H]2O)[C@H](O)[C@@H](O)[C@@H]1O [Trehalose]
insulin response prior to exercise [10]: lower
plasma glucose response prior to exercise [10]: lower
prevalence of rebound hypoglycemia [10]: reduced
adipocyte hypertrophy [11]: prevents
insulin resistance [11]: mitigates
glycemic response [12]: lower
insulinemic response [12]: lower
influence on blood glucose levels [13]: almost flat response

OC[C@H]1O[C@H](O[C@]2(CCl)O[C@H](CCl)[C@@H](O)[C@@H]2O)[C@H](O)[C@@H](O)[C@H]1Cl [sucralose]
postprandial insulin responses (FIG. 5) [14]: significantly lower than sucrose

O=C[C@H](O)[C@@H](O)[C@@H](O)[C@H](O)CO [galactose, reference compound]
insulin response prior to exercise [10]: lower
plasma glucose response prior to exercise [10]: lower
prevalence of rebound hypoglycemia [10]: reduced
